Data published in patent US9056110B2, “Substituted pyrimidinone-phenyl-pyrimidinyl compounds” (Confluence Life Sciences, Inc., priority 2011, dated 2015).

Columns and labels:
[1] = target: p38α/MK2 (Homo sapiens, UniProt Q16539); assay: p38α/MK2 cascade assay (IMAP, Hsp27 peptide phosphorylation); format: biochemical; settings: for IC50: p38α/MK2 cascade, Hsp27 peptide 1 μM, MgATP 10 μM, 120 minutes, read-out: p38/MK2 IC50; for Selectivity Ratio: ratio of p38α/PRAK:p38α/MK2 IC50 values
Protocol: (§1) P38 inhibitory potency and P38/MK2 substrate selectivity: The novel, MK2 substrate-selective inhibitory mechanism of compounds is evaluated in enzyme assays that compare inhibitor potency in blocking p38/MK2 versus p38/PRAK induced phosphorylation of an HSP-27 derived peptide substrate. The ability of compounds to inhibit activated phospho-p38α is evaluated using a p38α/MK2 and a p38α/PRAK cascade assay format. The kinase activity of p38α is determined by its ability to phosphorylate and activate GST-MK2 or GST-PRAK. The kinase activity of activated MK2 and PRAK is followed by measuring the phosphorylation of a fluorescently-labeled, peptide substrate based on the sequence of Hsp27 (FITC-KKKALSRQLSVAA). The phosphorylation of the Hsp27 peptide is quantified using IMAP assay technology (Molecular Devices) and the Analyst HT plate reader (LJL Biosystems). Kinase reactions are carried out in a 384-well plate (Corning 3575) in 20 mM HEPES pH 7.5, 10 mM MgCl2, 0.0005% Tween-20, 0.01% BSA, 1 mM DTT, and 2% DMSO. The inhibitor concentration varies between 0.5-30,000 nM, while the Hsp27 peptide substrate and MgATP are held constant at 1 μM and 10 μM, respectively. Activated p38α is added to a final concentration of 20 pM for reactions with 1 nM nonphosphorylated 1 nM GST-MK2. For the p38α/PRAK cascade, unactivated GST-PRAK is held constant at 10 nM while p38α is added to a final concentration of […]. Kinase reactions are incubated at room temperature and quenched after 120 minutes by the addition of 1× Progressive Binding Buffer A containing 1×IMAP beads (IMAP FP Progressive Screening Express Kit, Molecular Devices Catalog Number R8127). Inhibitor potency is calculated by fitting dose-response data to the 4-parameter logistical IC50 equation. The substrate selectivity is calculated as a ratio of p38α/PRAK:p38α/MK2 IC50 values. A substrate selective inhibitor will have a p38α/PRAK:p38α/MK2 IC50 ratio of >2 while a classical p38 inhibitor will have a ratio of between 0.5-2. […] By way of example, the enhanced therapeutic benefit could be associated with a reduction in inhibition of p38 mediated anti-inflammatory functions, such as IL-10 production and TAB1 phosphorylation. An increased safety profile is expected based, for example, on a reduced inhibition of p38 substrates, such as PPARg and CDC25 phosphatase and PLA2 involved in gluconeogenesis and cell cycle regulation, respectively.

[2] = target: p38α/PRAK (Homo sapiens, UniProt Q16539); assay: p38α/PRAK cascade assay (IMAP, Hsp27 peptide phosphorylation); format: biochemical; settings: Hsp27 peptide 1 μM, MgATP 10 μM, 120 minutes, read-out: p38/PRAK IC50
Protocol: as §1

[3] = tested on: TNFα; assay: LPS stimulated TNFα production in human PBMCs (ELISA); format: cell-based; settings: PBMC, LPS 0.1 μg/ml, 18-24 hours, read-out: PBMC Cell, TNFα IC50
Protocol: Evaluation of the potency and efficacy of p38 inhibitors to block cytokine production is carried out using the human U937 cell line and purified human PBMCs (peripheral blood mononuclear cells). The U937 human pre-monocytic cell line is obtained from the American Type Culture Collection (Rockville, Md.). These cells are differentiated to a monocytic/macrophage phenotype as described by Burnette (Burnette et al., (2009). SD0006: a potent, selective and orally available inhibitor of p38 kinase, Pharmacology 84(1):42-60). Differentiated U937 cells are seeded into 96-well tissue culture plates (200,000 cells/well) in complete media. After 24 hours, the cells are pretreated for 60 minutes in the presence or absence of compound and then stimulated with LPS (lipopolysaccharide) (0.1 μg/mL) for 4 hours. Culture media are then collected for determination of TNFα or IL-6 levels by ELISA. Human PBMCs are isolated from leukopacks as described by Burnette (Burnette et al., (2009), op. cit.). The cells are seeded into 96-well tissue culture plates (200,000 cells/well) in complete media. After a one hour recovery period at 37° C., 5% CO2, the cells are pretreated for 60 minutes in the presence or absence of compound and then stimulated with LPS (0.1 μg/ml) for 18-24 hours. Culture media are then collected for determination of TNFα and IL1β by ELISA. Cytokine concentrations are extrapolated from recombinant protein standard curves using a four-parameter logistic model and solving for IC50 after iterating to the best least-squares fit. p38 inhibitors will show a dose dependent inhibition of LPS stimulated TNFα, and IL6 in differentiated U937 cells and a dose dependent inhibition of LPS stimulated TNFα, IL6 and IL1b in human PBMCs. As drugs that down-regulate TNFα, IL6 and IL1b are efficacious in a number of autoimmune, autoinflammatory inflammatory, cardiovascular and oncological diseases, it would be expected that p38 drugs that inhibit these cytokines and other enzymes and mediators of disease will be effective drugs. Species compounds of Formula (I), described hereinabove, evaluated in this assay, are expected to provide a therapeutic benefit in the treatment of p38 kinase mediated diseases, including lymphoma and inflammation.

Chain of p38α/PRAK (Q16539 whole entry): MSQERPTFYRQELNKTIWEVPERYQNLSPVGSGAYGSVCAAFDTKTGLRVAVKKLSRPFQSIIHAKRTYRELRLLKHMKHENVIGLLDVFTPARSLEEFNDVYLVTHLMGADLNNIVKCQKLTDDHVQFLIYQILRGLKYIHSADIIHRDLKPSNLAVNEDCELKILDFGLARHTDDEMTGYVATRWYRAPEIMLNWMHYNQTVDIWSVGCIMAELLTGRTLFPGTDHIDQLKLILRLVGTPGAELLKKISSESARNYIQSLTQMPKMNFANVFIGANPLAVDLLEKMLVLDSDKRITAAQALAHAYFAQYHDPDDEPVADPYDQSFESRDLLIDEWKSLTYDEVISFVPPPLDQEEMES
Chain of p38α/MK2 (Q16539 whole entry): as above
Chain of p38α/MK2 (P49137 whole entry partner): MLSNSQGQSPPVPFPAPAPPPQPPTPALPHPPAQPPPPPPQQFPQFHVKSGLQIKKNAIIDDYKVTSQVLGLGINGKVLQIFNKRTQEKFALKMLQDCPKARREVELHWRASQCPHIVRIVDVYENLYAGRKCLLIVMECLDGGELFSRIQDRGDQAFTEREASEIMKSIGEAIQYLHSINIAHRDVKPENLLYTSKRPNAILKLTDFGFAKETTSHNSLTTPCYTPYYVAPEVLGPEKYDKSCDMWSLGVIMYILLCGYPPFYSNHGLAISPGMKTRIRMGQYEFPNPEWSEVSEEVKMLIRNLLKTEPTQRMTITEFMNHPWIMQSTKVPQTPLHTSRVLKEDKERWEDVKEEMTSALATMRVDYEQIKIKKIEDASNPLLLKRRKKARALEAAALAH

Structure (SMILES)	IC50 [1] [nM]	Selectivity Ratio [1]	IC50 [2] [nM]	IC50 [3] [nM]
Cc1nc(COc2nc(C)n(-c3cc(-c4ccnc(C(C)(C)O)n4)ccc3C)c(=O)c2Cl)cs1 [Example 12, 5-chloro-3-(5-(2-(2-hydroxypropan-2-yl)pyrimidin-4-yl)-2-methylphenyl)-2-methyl-6-((2-methylthiazol-4-yl)methoxy)pyrimidin-4(3H)-one]	76	17.9	1360	118
Cc1cccc(COc2nc(C)n(-c3cc(-c4ccnc(C(C)(C)O)n4)ccc3C)c(=O)c2Br)n1 [Example 13, 5-bromo-3-(5-(2-(2-hydroxypropan-2-yl)pyrimidin-4-yl)-2-methylphenyl)-2-methyl-6-((6-methylpyridin-2-yl)methoxy)pyrimidin-4(3H)-one]	83	15.4	1280	140
Cc1ccc(-c2ccnc(C(C)(C)O)n2)cc1-n1c(C)nc(OCc2cccc(C(F)(F)F)n2)c(Cl)c1=O [Example 17, 5-chloro-3-(5-(2-(2-hydroxypropan-2-yl)pyrimidin-4-yl)-2-methylphenyl)-2-methyl-6-((6-(trifluoromethyl)pyridin-2-yl)methoxy)pyrimidin-4(3H)-one]	1700	>17.6	> 30000	3750
Cc1ccc(-c2ccnc(C(C)(C)O)n2)cc1-n1c(C)nc(OCc2cccc(F)n2)c(Cl)c1=O [Example 18, 5-chloro-6-((6-fluoropyridin-2-yl)methoxy)-3-(5-(2-(2-hydroxypropan-2-yl)pyrimidin-4-yl)-2-methylphenyl)-2-methylpyrimidin-4(3H)-one]	579	13.3	7690	624
Cc1ccc(-c2ccnc(C(C)(C)O)n2)cc1-n1c(C)nc(OCc2ccc(F)c(C)c2F)c(Cl)c1=O [Example 22, 5-chloro-6-(2,4-difluoro-3-methyl-benzyloxy)-3-{5-[2-(1-hydroxy-1-methyl-ethyl)-pyrimidin-4-yl]-2-methyl-phenyl}-2-methyl-3H-pyrimidin-4-one]	386	15.1	5820	215

These reach a lower IC50 [1]. Values come first.

IC50 [1] [nM]	Selectivity Ratio [1]	IC50 [2] [nM]	IC50 [3] [nM]	Structure (SMILES)
52	23.6	1230	70	Cc1cccc(COc2nc(C)n(-c3cc(-c4ccnc(C(C)(C)O)n4)ccc3C)c(=O)c2Cl)n1 [Example 15, (−)-5-chloro-3-(5-(2-(2-hydroxypropan-2-yl)pyrimidin-4-yl)-2-methylphenyl)-2-methyl-6-((6-methylpyridin-2-yl)methoxy)pyrimidin-4(3H)-one]
33	7.63	252	96	Cc1ccc(-c2ccnc(C(C)(C)O)n2)cc1-n1c(C)nc(OCc2ncc(F)cc2F)c(Cl)c1=O [Example 21, (−)-5-chloro-6-((3,5-difluoropyridin-2-yl)methoxy)-3-(5-(2-(2-hydroxypropan-2-yl)pyrimidin-4-yl)-2-methylphenyl)-2-methylpyrimidin-4(3H)-one]
44	11.7	514	74	Cc1cc(COc2nc(C)n(-c3cc(-c4ccnc(C(C)(C)O)n4)ccc3C)c(=O)c2Cl)c(F)cc1F [Example 23, 5-chloro-6-((2,4-difluoro-5-methylbenzyl)oxy)-3-(5-(2-(2-hydroxypropan-2-yl)pyrimidin-4-yl)-2-methylphenyl)-2-methylpyrimidin-4(3H)-one]
